Experimental findings from PubChem BioAssay (NCI) are described below.

Some test systems named below: HCT-15 colon; RPMI-8226 leukemia; NCI-H23 lung; UO-31 renal; SF-539 CNS; CAKI-1 renal; PC-3 prostate; SK-MEL-28 melanoma; OVCAR-3 ovarian; MALME-3M melanoma.
Assay in all cases: inhibition of tumour cell growth, NCI panel, 48 h

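These data come from cells grown in 96-well plates and exposed to compound for 48 hours at five concentrations. The concentration for 50% growth inhibition is given as GI50. TGI: total growth inhibition.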 Where only a bound is given, the exact number is not on record here.

For `CCCCC(=O)N(c1ccc(Nc2c3ccccc3nc3cc([N+](=O)[O-])ccc23)cc1)S(C)(=O)=O`, the GI50 is 4.45 µM in the test on HCT-15 colon; 2.68 µM in the test on RPMI-8226 leukemia; 12.6 µM with NCI-H23 lung; 3.61 µM with UO-31 renal; 5.23 µM with SF-539 CNS; 7.03 µM with CAKI-1 renal. Moreover, the GI50 in the test on PC-3 prostate was 3.64 µM; in the test on SK-MEL-28 melanoma it was 14.5 µM; with OVCAR-3 ovarian, 14.2 µM; in the test with MALME-3M melanoma, 14.3 µM. For the same compound, the TGI in the test with HCT-15 colon is 29 µM; with RPMI-8226 leukemia, 14.3 µM; in the test with NCI-H23 lung, 42.5 µM; in the test with UO-31 renal, 45.3 µM; in the test on SF-539 CNS, greater than 61.9 µM; in the test on CAKI-1 renal it was greater than 51.9 µM. Moreover, the TGI with PC-3 prostate came to 54.2 µM; in the test with SK-MEL-28 melanoma, 36.6 µM; in the test with OVCAR-3 ovarian, 66.6 µM; in the test on MALME-3M melanoma it was 34.8 µM.

Regarding `O=C(/C=C/c1ccccc1)c1cccc2ccccc12`, the GI50 in the test on HCT-15 colon was 3.2 µM; in the test with RPMI-8226 leukemia, 1.93 µM; in the test with NCI-H23 lung, 3.19 µM; in the test with UO-31 renal it was 2.68 µM; in the test on SF-539 CNS it was 3.5 µM; with CAKI-1 renal, 2.11 µM. Besides, the GI50 with PC-3 prostate is 2.81 µM; in the test on SK-MEL-28 melanoma, 5.02 µM; in the test with OVCAR-3 ovarian it was 2.01 µM; in the test with MALME-3M melanoma it was 6.12 µM. The TGI came out at 13.4 µM in the test on HCT-15 colon; 5.86 µM in the test on RPMI-8226 leukemia; 11.9 µM with NCI-H23 lung; 12.6 µM in the test on UO-31 renal; 11 µM in the test on SF-539 CNS; 6.62 µM in the test on CAKI-1 renal. Moreover, the TGI was 7.78 µM in the test on PC-3 prostate, 16.6 µM in the test with SK-MEL-28 melanoma, 4.71 µM in the test with OVCAR-3 ovarian and 22.4 µM in the test with MALME-3M melanoma.

For the compound `COc1cccc2c1C(=O)c1c(O)c3c(c(O)c1C2=O)C[C@@](O)(/C(CO)=N/NC(=O)CCCCCN1C(=O)C=CC1=O)C[C@@H]3O[C@H]1C[C@H](N)[C@H](O)[C@H](C)O1`, the GI50 in the test with HCT-15 colon was 7.94 µM; in the test on RPMI-8226 leukemia, 0.32 µM; with NCI-H23 lung it was 0.927 µM; with UO-31 renal, 3.47 µM; in the test on SF-539 CNS, 0.734 µM; with CAKI-1 renal, 3.6 µM. For the same compound, the GI50 in the test with PC-3 prostate was 1.64 µM; in the test on SK-MEL-28 melanoma, 1.61 µM; in the test on OVCAR-3 ovarian it was 1.89 µM; in the test with MALME-3M melanoma, 0.395 µM. For the same compound, the TGI in the test on HCT-15 colon was greater than 100 µM; in the test with RPMI-8226 leukemia, greater than 28.2 µM; in the test on NCI-H23 lung it was 5.98 µM; in the test with UO-31 renal, 27.9 µM; with SF-539 CNS it was 7.82 µM; in the test with CAKI-1 renal, 56.4 µM. In addition, the TGI is 19.5 µM in the test on PC-3 prostate, 5.67 µM in the test with SK-MEL-28 melanoma, greater than 64.4 µM in the test on OVCAR-3 ovarian and 2.23 µM with MALME-3M melanoma.

As for `NS(=O)(=O)c1ccc(N=Nc2ccc[nH]c2=O)cc1`, the TGI in the test with HCT-15 colon, in the test with RPMI-8226 leukemia, with NCI-H23 lung, in the test with UO-31 renal, in the test with SF-539 CNS and with CAKI-1 renal was greater than 100 µM throughout. For the same compound, the TGI with PC-3 prostate, in the test on SK-MEL-28 melanoma, with OVCAR-3 ovarian and with MALME-3M melanoma was greater than 100 µM each time.

Turning to `CCc1nc(C)cn1C(=O)OCc1nc2nc(Cl)nc(N3CCOCC3)c2[nH]1`, the GI50 with HCT-15 colon is 0.677 µM; in the test on RPMI-8226 leukemia, 0.696 µM; in the test on NCI-H23 lung it was 1.55 µM; in the test with UO-31 renal, 1.01 µM; in the test with SF-539 CNS, 1.27 µM; in the test on CAKI-1 renal, 0.406 µM. For the same compound, the GI50 was 1.25 µM with PC-3 prostate, 1.78 µM in the test with SK-MEL-28 melanoma, 0.636 µM in the test on OVCAR-3 ovarian and 1.56 µM in the test on MALME-3M melanoma. For the same compound, the TGI amounted to 2.22 µM in the test with HCT-15 colon; 3.1 µM in the test on RPMI-8226 leukemia; 3.35 µM with NCI-H23 lung; 2.18 µM in the test with UO-31 renal; 2.54 µM in the test with SF-539 CNS; 1.71 µM in the test with CAKI-1 renal. Besides, the TGI in the test with PC-3 prostate came to 3.01 µM; in the test on SK-MEL-28 melanoma, 3.2 µM; with OVCAR-3 ovarian, 1.98 µM; in the test on MALME-3M melanoma it was 2.95 µM.

With `O=S(=O)(NC1=NCCN1C(=S)SN1CCn2c1nsc2=S)c1ccc(Oc2ccccc2)cc1`, the GI50 in the test with HCT-15 colon is 72.1 µM; with RPMI-8226 leukemia, 30.2 µM; in the test with NCI-H23 lung, 43 µM; in the test on UO-31 renal, greater than 100 µM; in the test on SF-539 CNS it was 49.5 µM; in the test on CAKI-1 renal, greater than 100 µM. The GI50 in the test with PC-3 prostate was 56 µM; with SK-MEL-28 melanoma, greater than 100 µM; with OVCAR-3 ovarian it was greater than 100 µM; with MALME-3M melanoma, 26.2 µM. The TGI in the test with HCT-15 colon, with RPMI-8226 leukemia, in the test on NCI-H23 lung, in the test with UO-31 renal, in the test on SF-539 CNS and with CAKI-1 renal was greater than 100 µM throughout. In addition, the TGI in the test with PC-3 prostate, in the test with SK-MEL-28 melanoma, in the test with OVCAR-3 ovarian and with MALME-3M melanoma was greater than 100 µM each time.

In the case of `COc1cc2c(cc1OC)C(C(CCCCCC(CCC(C)C)C1NCCc3cc(OC)c(OC)cc31)CCC(C)C)NCC2` (stereo not given), the GI50 is 0.274 µM in the test on HCT-15 colon; 0.327 µM with RPMI-8226 leukemia; 1.66 µM in the test with NCI-H23 lung; 1.59 µM in the test on UO-31 renal; 1.79 µM with SF-539 CNS; 1.55 µM in the test on CAKI-1 renal. Further, the GI50 is 1.58 µM in the test with PC-3 prostate, 1.85 µM in the test with SK-MEL-28 melanoma, 1.61 µM in the test with OVCAR-3 ovarian and 2.01 µM in the test with MALME-3M melanoma. Further, the TGI in the test with HCT-15 colon was determined as 0.851 µM; in the test on RPMI-8226 leukemia, 0.974 µM; in the test on NCI-H23 lung it was 3.18 µM; in the test with UO-31 renal it was 3.22 µM; with SF-539 CNS, 3.27 µM; in the test with CAKI-1 renal, 3.19 µM. The TGI in the test with PC-3 prostate turned out to be 3.12 µM; with SK-MEL-28 melanoma, 3.28 µM; with OVCAR-3 ovarian, 3.12 µM; in the test on MALME-3M melanoma, 4.03 µM.
